Consider five molecules from patent publication US5304369A, “Chlorohexidine adduct and method of preparing same” (Ivoclar AG, priority 1991, dated 1994).

The conditions of series [1]: background, cited from earlier work.
Series [2] concerns Streptococcus mutans. Kind of series: Agar diffusion test with Streptococcus mutans (inhibiting zone diameters). Format: cell-based. As to conditions: for Antibacterial action (in words): 0.003 wt.-%; for Bactericidal effectiveness (in words): concentrations smaller than or equal to 0.01 wt.-%. The method, then:
For this purpose, culture suspensions of Streptococcus mutans were added to a liquid Agar comprising yeast extract and dextrose. After the Agar plates had solidified, a hole of 10 mm diameter was cut out, into which 0.1 ml of the solution to be tested was poured in each case. After 24 hours of incubation at 37° C., the diameters of the inhibiting zones were measured for each sample, which were duplicated in each case.
In general terms: In agar diffusion tests the substance spreads into inoculated agar from a disc or well.

Series [3] can be described thus: Solubility in common solvents and reactive diluents. Format: physicochemical.
Series [4] in a line: Side-effects in use (bitter taste, discolorations, irritations of the mucosa).
The conditions of series [5]: higher concentrations; cited from earlier work.
Series [6] relates to Streptococcus mutans. As to conditions: cited from earlier work.
Setting [7] is: 0.03 wt. %, 0.1 ml in 10 mm hole, 24 hours, 37° C.

Converted amounts (≈) assume the structure as drawn. Like-named read-outs stand apart in the source and are kept apart here.

`[H]/N=C(\N/C(=N/[H])NCCCCCCNC(=N)NC(=N)Nc1ccc(Cl)cc1)Nc1ccc(Cl)cc1` [Solution A]: the “Solubility (in words)” value in series [1] (listed as digluconate) was “water-soluble”. Also, the zone of inhibition at 0.003 % in the series on Streptococcus mutans [2] (Streptococcus mutans, 24 h, 0.003 wt. %, 0.1 ml in 10 mm hole, 24 hours, 37° C., * = Not effective, read-out: Inhibiting zone diameter) is 11 mm. Further, the zone of inhibition at 0.01 % in the series with Streptococcus mutans [2] (Streptococcus mutans, 24 h, 0.01 wt. %, 0.1 ml in 10 mm hole, 24 hours, 37° C., read-out: Inhibiting zone diameter) was 13 mm. Besides, the zone of inhibition at 0.03 % in the series on Streptococcus mutans [2] (Streptococcus mutans, 24 h, 0.03 wt. %, 0.1 ml in 10 mm hole, 24 hours, 37° C., read-out: Inhibiting zone diameter) came out at 17 mm.

Regarding `[F][Sn][F]` [Solution C, stannous difluoride], the Inhibiting zone diameter in the series on Streptococcus mutans [2] (0.003 wt. %, 0.1 ml in 10 mm hole, 24 hours, 37° C., * = Not effective) was 10 mm; in the series on Streptococcus mutans [2] (0.01 wt. %, 0.1 ml in 10 mm hole, 24 hours, 37° C.), 11 mm; with Streptococcus mutans [2] (setting [7]) it was 20 mm. The entries for the “Antibacterial action (in words)” value in the series on Streptococcus mutans [2] and in the series on Streptococcus mutans [2] (listed as stannous difluoride) were “Not effective” and “an antibacterial action can no longer be detected”, respectively. In the series on Streptococcus mutans [2] (0.03 wt.-%), the “Antibacterial effectiveness (in words)” value is on record as “even stronger action”.

For the molecule `[H]/N=C(\N/C(=N/[H])NCCCCCCNC(=N)NC(=N)Nc1ccc(Cl)cc1)Nc1ccc(Cl)cc1` [chlorohexidine adduct, chlorohexidine hexahydrofluoride], the Solubility in series [3] (Acetone) is 0.03 wt. %; in series [3] (Decandiol dimethacrylate (D3 MA)), less than 0.005 wt. %; in series [3] (Ethanol) it was 0.005 wt. %; in series [3] (Ethyl acetate), 0.02 wt. %; in series [3] (Triethylene glycol dimethacrylate (SR-205)), less than 0.005 wt. %; in series [3] (Water (pH value 2 to 9.7), read-out: Solubility), 300 µg/mL (≈ 594 µM). For the same molecule, the “Solubility (in words)” value in series [3] (common solvents) is “quite a low solubility”. In addition, the “Unwanted side-effects (bitter taste, discolorations of tooth materials, irritations of the mucosa)” value in series [4] is on record as “no unwanted side-effects”. The Inhibiting zone diameter came to 12 mm in the series with Streptococcus mutans [2] (0.003 wt. %, 0.1 ml in 10 mm hole, 24 hours, 37° C., * = Not effective, listed as Solution B); 15 mm in the series on Streptococcus mutans [2] (0.01 wt. %, 0.1 ml in 10 mm hole, 24 hours, 37° C., listed as Solution B); 17 mm with Streptococcus mutans [2] (setting [7]). For the same molecule, the “Antibacterial effectiveness (in words)” value in the series with Streptococcus mutans [2] (0.01 to 0.003 wt.-%) is “still very high”; in the series with Streptococcus mutans [2] (0.03 wt.-%) it was “comparable with that of chlorohexidine gluconate”; in the series on Streptococcus mutans [2] (0.03 wt.-%, listed as adduct according to the invention) it was “completely comparable”. In addition, the “Bactericidal effectiveness (in words)” value in the series on Streptococcus mutans [2] is “clearly superior to stannous difluoride”.

Regarding `[H]/N=C(\N/C(=N/[H])NCCCCCCNC(=N)NC(=N)Nc1ccc(Cl)cc1)Nc1ccc(Cl)cc1` [chlorohexidine, 1,6-bis-(N^5-p-chlorophenyl-N'-diguanido)-hexane], in series [5], the “Dis-colorations of the tongue, teeth, prostheses and fillings” value is on record as “can lead to unwanted dis-colorations”. The “Effectiveness against bacteria of the type Streptococcus mutans (in words)” value in the series on Streptococcus mutans [6] is reported as “effective”. Besides, the “Bactericidal effect vis-a-vis Streptococcus mutans (in words)” value with Streptococcus mutans [6] (small concentrations) was “greatly weakened”. Also, the “Bactericidal effectiveness (in words)” value with Streptococcus mutans [2] is “clearly exceeded”.

With `[H]/N=C(\N/C(=N/[H])NCCCCCCNC(=N)NC(=N)Nc1ccc(Cl)cc1)Nc1ccc(Cl)cc1` [diacetate], the “Solubility (in words)” value in series [1] is listed as “sparingly soluble”.
